Consider one molecule from patent US6203822A, “Gallium-containing compounds for the treatment of infections caused by intracellular pathogens and pathogens causing chronic pulmonary infection” (priority 1996, dated 2001).

For the test, the system named is MDR-TB patient isolate (resistant to isoniazid and rifampin). It is filed as cell-based, M. tuberculosis. To be noted: gallium about 0 to about 500 μM.

As to `O=[N+]([O-])[O-].O=[N+]([O-])[O-].O=[N+]([O-])[O-].[Ga+3]` [gallium nitrate], the “activity against MDR M. tuberculosis strain” value is listed as “retained full activity”.
